US20260060250A1, “HERBICIDAL PYRIDONE DERIVATIVES” (SYNGENTA CROP PROTECTION AG, priority 2022, published 2026)

Key:
Format in all cases: in vivo
Conditions in all cases: evaluated after 13 days
Setaria faberi (SETFA) [1] = assay: Pre-emergence Test (Table B1); set-up: key: 5=81-100%; 4=61-80%; 3=41-60%; 2=21-40%; 1=0-20%; 0=inactive
[2] = system: Ipomoea hederacea (IPOHE); assay: Post-emergence Test (Table B2)
Procedure: (§1) Seeds of a variety of test species are sown in standard soil in pots (Amaranthus palmeri (AMAPA), Setaria faberi (SETFA), Echinochloa crus-galli (ECHCG), (Amaranthus retroflexus (AMARE), Zea mays (ZEAMX), Ipomoea hederacea (IPOHE)). After 8 days cultivation under controlled conditions in a glasshouse (at 24° C./16° C., day/night; 14 hours light; 65% humidity), the plants are sprayed with an aqueous spray solution derived from the formulation of the technical active ingredient in acetone/water (50:50) solution containing 0.5% Tween 20 (polyoxyethelyene sorbitan monolaurate, CAS RN 9005-64-5). Compounds are applied at 1000 g/ha unless otherwise stated. The test plants are then grown in a glasshouse under controlled conditions in a glasshouse (at 24° C./16° C., day/night; 14 hours light; 65% humidity) and watered twice daily. After 13 days the test is evaluated for the percentage damage caused to the plant.

[3] = system: Echinochloa crus-galli (ECHCG); assay: Post-emergence Test (Table B2)
Procedure: as §1

Zea mays (ZEAMX) [4] = assay: Post-emergence Test (Table B2)
Procedure: as §1

Zea mays (ZEAMX) [5] = assay: Pre-emergence Test (Table B1); set-up: key: 5=81-100%; 4=61-80%; 3=41-60%; 2=21-40%; 1=0-20%; 0=inactive
[6] = system: Ipomoea hederacea (IPOHE); assay: Pre-emergence Test (Table B1); set-up: key: 5=81-100%; 4=61-80%; 3=41-60%; 2=21-40%; 1=0-20%; 0=inactive
[7] = system: Amaranthus palmeri (AMAPA); assay: Pre-emergence Test (Table B1); set-up: key: 5=81-100%; 4=61-80%; 3=41-60%; 2=21-40%; 1=0-20%; 0=inactive
[8] = system: Echinochloa crus-galli (ECHCG); assay: Pre-emergence Test (Table B1); set-up: key: 5=81-100%; 4=61-80%; 3=41-60%; 2=21-40%; 1=0-20%; 0=inactive
[9] = system: Amaranthus retroflexus (AMARE); assay: Pre-emergence Test (Table B1)
[10] = system: Amaranthus palmeri (AMAPA); assay: Post-emergence Test (Table B2)
Procedure: as §1

[11] = system: Amaranthus retroflexus (AMARE); assay: Post-emergence Test (Table B2)
Procedure: as §1

Setaria faberi (SETFA) [12] = assay: Post-emergence Test (Table B2)
Procedure: as §1

[13] = lower rate of 250 g per hectare

Row | SMILES | percentage damage caused to the plant, SETFA (Setaria faberi (SETFA) [1]; 1000 g/ha) | percentage damage caused to the plant, IPOHE ([2]; 1000 g/ha) | percentage damage caused to the plant, ECHCG ([3]; 1000 g/ha) | percentage damage caused to the plant, ZEAMX (Zea mays (ZEAMX) [4]; 1000 g/ha) | percentage damage caused to the plant, ZEAMX (Zea mays (ZEAMX) [5]; 1000 g/ha) | percentage damage caused to the plant, IPOHE ([6]; 1000 g/ha) | percentage damage caused to the plant, AMAPA ([7]; 1000 g/ha) | percentage damage caused to the plant, ECHCG ([8]; 1000 g/ha) | percentage damage caused to the plant, AMARE ([9]; 1000 g/ha) | percentage damage caused to the plant, AMAPA ([10]; 1000 g/ha) | percentage damage caused to the plant, AMARE ([11]; 1000 g/ha) | percentage damage caused to the plant, SETFA (Setaria faberi (SETFA) [12]; 1000 g/ha) | percentage damage caused to the plant, SETFA (Setaria faberi (SETFA) [1]; [13]) | percentage damage caused to the plant, IPOHE [2, 13] | percentage damage caused to the plant, ECHCG [3, 13] | percentage damage caused to the plant, ZEAMX (Zea mays (ZEAMX) [4]; [13]) | percentage damage caused to the plant, ZEAMX (Zea mays (ZEAMX) [5]; [13]) | percentage damage caused to the plant, IPOHE [6, 13] | percentage damage caused to the plant, AMAPA [7, 13] | percentage damage caused to the plant, ECHCG [8, 13] | other results
1 | C=CC(C)OC(=O)c1cc(-c2c(C)n(CC)c(-c3ccc(Cl)c(Cl)c3)c(C(=O)O)c2=O)c(F)cc1Cl (stereo not drawn) [Compound 21, 5-[4-chloro-2-fluoro-5-(1-methylallyloxycarbonyl)phenyl]-2-(3,4-dichlorophenyl)-1-ethyl-6-methyl-4-oxo-pyridine-3-carboxylic acid] | 2 (2=21-40%) | 3 (3=41-60%) | 4 (4=61-80%) | 2 (2=21-40%) | 0 | 3 (3=41-60%) | 5 (5=81-100%) | 4 (4=61-80%) | 5 (5=81-100%) | 5 (5=81-100%) | 5 (5=81-100%) | 3 (3=41-60%) | – | – | – | – | – | – | – | – | –
2 | CC#CC(C)OC(=O)c1cc(-c2c(C)n(CC)c(-c3ccc(Cl)c(Cl)c3)c(C(=O)O)c2=O)c(F)cc1Cl (stereo not drawn) [Compound 22, 5-[4-chloro-2-fluoro-5-(1-methylbut-2-ynoxycarbonyl)phenyl]-2-(3,4-dichlorophenyl)-1-ethyl-6-methyl-4-oxo-pyridine-3-carboxylic acid] | – | – | – | – | – | – | – | – | – | – | – | – | 1 (1=0-20%) | 5 (5=81-100%) | 5 (5=81-100%) | 3 (3=41-60%) | 1 (1=0-20%) | 1 (1=0-20%) | 5 (5=81-100%) | 1 (1=0-20%) | percentage damage caused to the plant, AMARE [9, 13]: 5 (5=81-100%); percentage damage caused to the plant, AMAPA [10, 13]: 5 (5=81-100%); percentage damage caused to the plant, AMARE [11, 13]: 5 (5=81-100%); percentage damage caused to the plant, SETFA (Setaria faberi (SETFA) [12]; [13]): 5 (5=81-100%)
3 | CCn1c(C)c(-c2cc(C(=O)OC3CCC3)c(Cl)cc2F)c(=O)c(C(=O)O)c1-c1ccc(Cl)c(Cl)c1 [Compound 23, 5-[4-chloro-5-(cyclobutoxycarbonyl)-2-fluoro-phenyl]-2-(3,4-dichlorophenyl)-1-ethyl-6-methyl-4-oxo-pyridine-3-carboxylic acid] | 5 (5=81-100%) | 2 (2=21-40%) | 4 (4=61-80%) | 2 (2=21-40%) | 2 (2=21-40%) | 4 (4=61-80%) | 5 (5=81-100%) | 5 (5=81-100%) | 5 (5=81-100%) | 5 (5=81-100%) | 5 (5=81-100%) | 5 (5=81-100%) | – | – | – | – | – | – | – | – | –
4 | CCn1c(C)c(-c2cc(C(=O)OC3CCCC3)c(Cl)cc2F)c(=O)c(C(=O)O)c1-c1ccc(Cl)c(Cl)c1 [Compound 24, 5-[4-chloro-5-(cyclopentoxycarbonyl)-2-fluoro-phenyl]-2-(3,4-dichlorophenyl)-1-ethyl-6-methyl-4-oxo-pyridine-3-carboxylic acid] | 1 (1=0-20%) | 4 (4=61-80%) | 5 (5=81-100%) | 3 (3=41-60%) | 0 | 3 (3=41-60%) | 5 (5=81-100%) | 1 (1=0-20%) | 5 (5=81-100%) | 5 (5=81-100%) | 5 (5=81-100%) | 5 (5=81-100%) | – | – | – | – | – | – | – | – | –
5 | CCn1c(C)c(-c2cc(C(=O)OC(C)COC)c(Cl)cc2F)c(=O)c(C(=O)O)c1-c1ccc(Cl)c(Cl)c1 (stereo not drawn) [Compound 26, 5-[4-chloro-2-fluoro-5-(2-methoxy-1-methyl-ethoxy)carbonyl-phenyl]-2-(3,4-dichlorophenyl)-1-ethyl-6-methyl-4-oxo-pyridine-3-carboxylic acid] | 4 (4=61-80%) | 5 (5=81-100%) | 5 (5=81-100%) | 5 (5=81-100%) | 0 | 3 (3=41-60%) | 5 (5=81-100%) | 4 (4=61-80%) | 5 (5=81-100%) | 5 (5=81-100%) | 5 (5=81-100%) | 5 (5=81-100%) | – | – | – | – | – | – | – | – | –
6 | CCn1c(C)c(-c2cc(C(=O)OC3CC3)c(Cl)cc2F)c(=O)c(C(=O)O)c1-c1ccc(C#N)c(F)c1 [Compound 39, 5-[4-chloro-5-(cyclopropoxycarbonyl)-2-fluoro-phenyl]-2-(4-cyano-3-fluoro-phenyl)-1-ethyl-6-methyl-4-oxo-pyridine-3-carboxylic acid] | – | – | – | – | – | – | – | – | – | – | – | – | 0 | 4 (4=61-80%) | 4 (4=61-80%) | 5 (5=81-100%) | 0 | 4 (4=61-80%) | 5 (5=81-100%) | 0 | percentage damage caused to the plant, AMARE [9, 13]: 5 (5=81-100%); percentage damage caused to the plant, AMAPA [10, 13]: 5 (5=81-100%); percentage damage caused to the plant, AMARE [11, 13]: 5 (5=81-100%); percentage damage caused to the plant, SETFA (Setaria faberi (SETFA) [12]; [13]): 5 (5=81-100%)
7 | CCn1c(C)c(-c2cc(C(=O)OC(C)CC(=O)OC)c(Cl)cc2F)c(=O)c(C(=O)O)c1-c1ccc(Cl)c(Cl)c1 (stereo not drawn) [Compound 42, 5-[4-chloro-2-fluoro-5-(3-methoxy-1-methyl-3-oxo-propoxy)carbonyl-phenyl]-2-(3,4-dichlorophenyl)-1-ethyl-6-methyl-4-oxo-pyridine-3-carboxylic acid] | – | – | – | – | – | – | – | – | – | – | – | – | 0 | 3 (3=41-60%) | 2 (2=21-40%) | 3 (3=41-60%) | 1 (1=0-20%) | 0 | 1 (1=0-20%) | 0 | percentage damage caused to the plant, AMARE [9, 13]: 3 (3=41-60%); percentage damage caused to the plant, AMAPA [10, 13]: 4 (4=61-80%); percentage damage caused to the plant, AMARE [11, 13]: 5 (5=81-100%); percentage damage caused to the plant, SETFA (Setaria faberi (SETFA) [12]; [13]): 2 (2=21-40%)
8 | C#CCC(C)OC(=O)c1cc(-c2c(C)n(CC)c(-c3ccc(Cl)c(Cl)c3)c(C(=O)O)c2=O)c(F)cc1Cl (stereo not drawn) [Compound 43, 5-[4-chloro-2-fluoro-5-(1-methylbut-3-ynoxycarbonyl)phenyl]-2-(3,4-dichlorophenyl)-1-ethyl-6-methyl-4-oxo-pyridine-3-carboxylic acid] | – | – | – | – | – | – | – | – | – | – | – | – | 0 | 2 (2=21-40%) | 4 (4=61-80%) | 4 (4=61-80%) | 0 | 0 | 0 | 0 | percentage damage caused to the plant, AMARE [9, 13]: 2 (2=21-40%); percentage damage caused to the plant, AMAPA [10, 13]: 5 (5=81-100%); percentage damage caused to the plant, AMARE [11, 13]: 5 (5=81-100%); percentage damage caused to the plant, SETFA (Setaria faberi (SETFA) [12]; [13]): 3 (3=41-60%)
